The values that follow come from US5340822A, “Polycyclic amine compounds and their enantiomers, their method of preparation and pharmaceutical compositions in which they are present” (Elf Sanofi, priority 1991, dated 1994).

Structures can show the parent of a compound that is named as a salt.

Experiment [1] addresses binding of substance P. The experiment in a line: antagonism of the binding of substance P on rat cortical membranes and IM9 lymphoblasts. The settings on record: rat cortical membranes and/or IM9 lymphoblasts (not said which); read-out: Ki, antagonizes the binding of substance P.
For experiment [2], the system named is NK1 receptor. As to conditions: D. Regoli, 1988 and 1989; cited from earlier work.
In experiment [3] the target is T1, binding of neurokinin A (NKA) (Rattus norvegicus, UniProt P16610).
T1 construct: tests performed on rat duodenal membranes; from tissue; host or cells: rat duodenal membranes
T1 sequence (P16610 1-390): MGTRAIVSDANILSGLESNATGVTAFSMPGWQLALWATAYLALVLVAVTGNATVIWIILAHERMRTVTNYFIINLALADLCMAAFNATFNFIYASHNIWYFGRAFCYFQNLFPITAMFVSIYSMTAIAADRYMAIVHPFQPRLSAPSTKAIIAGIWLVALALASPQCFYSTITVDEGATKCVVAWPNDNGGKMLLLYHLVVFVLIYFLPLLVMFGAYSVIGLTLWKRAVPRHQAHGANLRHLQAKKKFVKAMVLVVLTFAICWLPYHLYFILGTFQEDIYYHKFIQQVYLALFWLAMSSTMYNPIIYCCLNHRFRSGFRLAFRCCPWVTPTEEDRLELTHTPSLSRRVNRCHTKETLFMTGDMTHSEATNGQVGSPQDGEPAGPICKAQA
The experiment in a line: antagonism of the binding of NKA on rat duodenal membranes. The settings on record: read-out: Ki, antagonizes the binding of neurokinin A.

The target in experiment [4] is T2, binding of eledoisin (Rattus norvegicus, UniProt P16177).
T2 construct: tests performed on rat membranes; from tissue
T2 sequence (P16177 1-452): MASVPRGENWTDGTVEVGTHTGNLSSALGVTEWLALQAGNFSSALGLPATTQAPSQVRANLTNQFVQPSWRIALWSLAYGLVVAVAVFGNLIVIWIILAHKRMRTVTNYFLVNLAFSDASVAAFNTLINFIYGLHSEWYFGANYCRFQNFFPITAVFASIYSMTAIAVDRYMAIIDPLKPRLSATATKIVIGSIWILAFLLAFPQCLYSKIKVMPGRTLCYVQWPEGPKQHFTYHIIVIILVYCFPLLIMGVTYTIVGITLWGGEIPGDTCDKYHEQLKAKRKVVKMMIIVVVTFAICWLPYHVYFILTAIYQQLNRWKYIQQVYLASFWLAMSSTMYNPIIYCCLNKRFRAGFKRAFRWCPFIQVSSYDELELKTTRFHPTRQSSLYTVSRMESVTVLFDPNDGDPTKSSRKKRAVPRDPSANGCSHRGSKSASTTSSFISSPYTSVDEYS
The experiment in a line: antagonism of the binding of eledoisin on rat membranes. As to conditions: read-out: Ki, antagonizes the binding of eledoisin. From the text:
Foster et al., Br. J. Pharmacol., 1988, 94, 602-608.
Eledoisin is a peptide of batrachian origin which is equivalent to neurokinin B.

For orientation: Ki means a dissociation constant, usually derived from enzyme kinetics or from competition with a known ligand. As for `O=C(Cc1ccccc1)N1CCCC(CCN2CCC(Cc3ccccc3)CC2)(c2ccc(Cl)c(Cl)c2)C1` (stereo not shown) [Compound 2, 3-[2-(4-Benzylpiperidin-1-yl)ethyl]-3-(3,4-dichlorophenyl)-1-phenylacetylpiperidine hydrochloride], the Ki in experiment [1] was 8.3 nM.
In the case of [Sar^9,Met-(O2)^11 ]SP, in experiment [2], the “selectivity for the NK1 receptor” value is reported as “thought to have a selectivity for the NK1”.
In the case of `O=C(c1ccccc1)N1CCC(CCN2CCC(O)(c3ccccc3)CC2)(c2ccc(Cl)c(Cl)c2)C1` (stereo not shown) [Compound 7], the Ki in experiment [3] amounted to 1.3 nM.
Regarding `O=C1CCC(CCN2CCC(O)(c3ccccc3)CC2)(c2ccc(Cl)c(Cl)c2)CN1Cc1ccccc1` (stereo not shown) [Compound 3], in experiment [4], the inhibition constant Ki is 200 nM.
